IC50 and melting point data for four compounds are collected here from patent US8110586B2, “8-aza-bicyclo[3.2.1]octane derivatives and their use as monoamine neurotransmitter re-uptake inhibitors” (Neurosearch A/S, priority 2006, dated 2012).

Counter-ions that a name gives are not always drawn.

The target of data set [1] is T1, reuptake of serotonine (5-HT) in synaptosomes (Rattus norvegicus, UniProt P31652).
T1 construct: in synaptosomes as described in WO 97/16451; from tissue
The experiment in a line: Inhibition of serotonin reuptake in synaptosomes. The class given is biochemical. How it is done:
A number of compounds were tested for their ability to inhibit the reuptake of the monoamine neurotransmitters dopamine (DA) noradrenaline (NA) and serotonine (5-HT) in synaptosomes as described in WO 97/16451.
The test values are given as IC50 (the concentration (μM) of the test substance which inhibits the specific binding of ^3H-DA, ^3H-NA, or ^3H-5-HT by 50%).

In data set [2] the target is T2, reuptake of dopamine (DA) in synaptosomes (Rattus norvegicus, UniProt P23977).
T2 construct: in synaptosomes as described in WO 97/16451; from tissue
Nature of the data set: Inhibition of dopamine reuptake in synaptosomes. Format: biochemical. The following applies: 3H-DA, read-out: DA-uptake IC50.

T2 sequence (P23977 whole entry): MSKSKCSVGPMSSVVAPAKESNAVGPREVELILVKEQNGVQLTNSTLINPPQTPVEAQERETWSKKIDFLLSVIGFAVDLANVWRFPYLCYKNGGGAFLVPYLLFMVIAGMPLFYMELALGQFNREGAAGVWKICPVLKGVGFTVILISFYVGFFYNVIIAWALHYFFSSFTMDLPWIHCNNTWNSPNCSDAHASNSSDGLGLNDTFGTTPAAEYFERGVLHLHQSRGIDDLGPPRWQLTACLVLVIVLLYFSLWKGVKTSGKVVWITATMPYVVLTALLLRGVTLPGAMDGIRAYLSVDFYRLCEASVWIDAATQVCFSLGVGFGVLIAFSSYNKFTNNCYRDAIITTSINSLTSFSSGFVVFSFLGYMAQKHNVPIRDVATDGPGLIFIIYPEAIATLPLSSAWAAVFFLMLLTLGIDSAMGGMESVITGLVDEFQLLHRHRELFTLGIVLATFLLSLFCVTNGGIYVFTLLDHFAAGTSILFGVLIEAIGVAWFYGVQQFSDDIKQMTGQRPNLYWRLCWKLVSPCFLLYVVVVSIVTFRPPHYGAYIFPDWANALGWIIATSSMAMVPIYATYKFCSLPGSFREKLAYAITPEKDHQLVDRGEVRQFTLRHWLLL
T1 sequence (P31652 whole entry): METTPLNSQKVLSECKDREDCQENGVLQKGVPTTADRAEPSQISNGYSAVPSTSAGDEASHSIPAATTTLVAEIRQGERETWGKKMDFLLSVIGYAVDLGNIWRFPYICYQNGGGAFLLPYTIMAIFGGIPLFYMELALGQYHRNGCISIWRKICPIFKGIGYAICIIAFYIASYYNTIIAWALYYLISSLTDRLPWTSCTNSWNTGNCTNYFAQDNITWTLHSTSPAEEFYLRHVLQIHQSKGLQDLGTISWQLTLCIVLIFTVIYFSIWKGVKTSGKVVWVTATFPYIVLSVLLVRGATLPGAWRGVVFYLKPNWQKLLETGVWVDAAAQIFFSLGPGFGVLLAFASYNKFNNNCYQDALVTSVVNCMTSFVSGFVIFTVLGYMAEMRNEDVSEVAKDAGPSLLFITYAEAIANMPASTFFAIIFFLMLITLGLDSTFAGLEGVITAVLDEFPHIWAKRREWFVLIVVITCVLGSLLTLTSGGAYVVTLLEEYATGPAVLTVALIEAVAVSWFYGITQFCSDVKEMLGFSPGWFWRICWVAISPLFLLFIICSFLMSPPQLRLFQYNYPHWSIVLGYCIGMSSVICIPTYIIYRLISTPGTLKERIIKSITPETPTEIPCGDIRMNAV

Broadly, the IC50 is the concentration that gives 50% inhibition. `COc1ccc2ccc(OC3CC4CCC(C3)N4)cc2c1` (stereo not drawn) [Last compound of Example A, exo-3-(7-Methoxy-naphthalen-2-yloxy)-8-aza-bicyclo[3.2.1]octane]: the IC50 in data set [1] was 0.42 nM; in data set [2], 1400 nM.
Broadly, the melting point is the temperature of the solid-liquid transition. Take `COc1ccc2ccc(OC3CC4CCC(C3)N4)cc2c1` (stereo not drawn) (as salt: hydrochloric acid salt) [Last compound of Example A, exo-3-(7-Methoxy-naphthalen-2-yloxy)-8-aza-bicyclo[3.2.1]octane]: the melting point was 225 °C.
With `COc1ccc2cc(OC3CC4CCC(C3)N4)ccc2c1` (stereo not drawn) [First compound of Example A, exo-3-(6-Methoxy-naphthalen-2-yloxy)-8-aza-bicyclo[3.2.1]octane], the IC50 turned out to be 26 nM in data set [1] and 420 nM in data set [2].
On to `COc1ccc2cc(OC3CC4CCC(C3)N4)ccc2c1` (stereo not drawn) (as salt: hydrochloric acid salt) [First compound of Example A, exo-3-(6-Methoxy-naphthalen-2-yloxy)-8-aza-bicyclo[3.2.1]octane], for which the melting point fell in the range of 237 to 239 °C.
